Measured values published in ChEMBL document CHEMBL1909046, “DrugMatrix in vitro pharmacology data”.

What was measured:
Glycine receptor = Glycine receptor (Rattus norvegicus, UniProt P22771+P24524+P07727+P20781); type: cell membranes, Wistar, Spinal cord, Membrane; further: in other assays of this panel Not Active means under 50% inhibition at 10 µM
[1] = biological target: T1, Muscarinic acetylcholine receptor M2 (Homo sapiens, UniProt P08172); type: cell membranes, CHO-K1, Membrane; conditions: cho-k1; further: in other assays of this panel Not Active means under 50% inhibition at 10 µM
T1 sequence (P08172 whole entry): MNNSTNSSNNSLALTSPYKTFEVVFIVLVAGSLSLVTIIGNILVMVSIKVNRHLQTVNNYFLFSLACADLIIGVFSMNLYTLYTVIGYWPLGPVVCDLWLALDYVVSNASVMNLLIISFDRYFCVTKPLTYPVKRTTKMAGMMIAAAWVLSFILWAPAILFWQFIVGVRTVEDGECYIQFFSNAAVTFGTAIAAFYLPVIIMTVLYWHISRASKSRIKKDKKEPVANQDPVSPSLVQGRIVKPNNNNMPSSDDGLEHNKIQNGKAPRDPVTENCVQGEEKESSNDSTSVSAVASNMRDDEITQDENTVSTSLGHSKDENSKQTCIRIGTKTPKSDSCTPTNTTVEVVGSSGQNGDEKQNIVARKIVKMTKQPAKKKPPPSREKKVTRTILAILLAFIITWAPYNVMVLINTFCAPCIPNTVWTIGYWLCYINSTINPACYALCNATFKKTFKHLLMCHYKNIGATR

[2] = DRUGMATRIX: Purinergic P2X radioligand binding (ligand: [3H] alpha, beta-Methylene-ATP); type: cell membranes, Oryctolagus cuniculus, New Zealand albino, Urinary bladder, Membrane; conditions: Not Active = under 50% inhibition at 10 µM
[3] = biological target: Epidermal growth factor receptor (Homo sapiens, UniProt P00533); assay: DRUGMATRIX: Protein Tyrosine Kinase, EGF Receptor enzyme inhibition (substrate: Poly(Glu:Tyr)); type: cell-based, Insect cells; conditions: insect cells; Not Active = under 50% inhibition at 10 µM
Chain of Epidermal growth factor receptor (P00533 whole entry): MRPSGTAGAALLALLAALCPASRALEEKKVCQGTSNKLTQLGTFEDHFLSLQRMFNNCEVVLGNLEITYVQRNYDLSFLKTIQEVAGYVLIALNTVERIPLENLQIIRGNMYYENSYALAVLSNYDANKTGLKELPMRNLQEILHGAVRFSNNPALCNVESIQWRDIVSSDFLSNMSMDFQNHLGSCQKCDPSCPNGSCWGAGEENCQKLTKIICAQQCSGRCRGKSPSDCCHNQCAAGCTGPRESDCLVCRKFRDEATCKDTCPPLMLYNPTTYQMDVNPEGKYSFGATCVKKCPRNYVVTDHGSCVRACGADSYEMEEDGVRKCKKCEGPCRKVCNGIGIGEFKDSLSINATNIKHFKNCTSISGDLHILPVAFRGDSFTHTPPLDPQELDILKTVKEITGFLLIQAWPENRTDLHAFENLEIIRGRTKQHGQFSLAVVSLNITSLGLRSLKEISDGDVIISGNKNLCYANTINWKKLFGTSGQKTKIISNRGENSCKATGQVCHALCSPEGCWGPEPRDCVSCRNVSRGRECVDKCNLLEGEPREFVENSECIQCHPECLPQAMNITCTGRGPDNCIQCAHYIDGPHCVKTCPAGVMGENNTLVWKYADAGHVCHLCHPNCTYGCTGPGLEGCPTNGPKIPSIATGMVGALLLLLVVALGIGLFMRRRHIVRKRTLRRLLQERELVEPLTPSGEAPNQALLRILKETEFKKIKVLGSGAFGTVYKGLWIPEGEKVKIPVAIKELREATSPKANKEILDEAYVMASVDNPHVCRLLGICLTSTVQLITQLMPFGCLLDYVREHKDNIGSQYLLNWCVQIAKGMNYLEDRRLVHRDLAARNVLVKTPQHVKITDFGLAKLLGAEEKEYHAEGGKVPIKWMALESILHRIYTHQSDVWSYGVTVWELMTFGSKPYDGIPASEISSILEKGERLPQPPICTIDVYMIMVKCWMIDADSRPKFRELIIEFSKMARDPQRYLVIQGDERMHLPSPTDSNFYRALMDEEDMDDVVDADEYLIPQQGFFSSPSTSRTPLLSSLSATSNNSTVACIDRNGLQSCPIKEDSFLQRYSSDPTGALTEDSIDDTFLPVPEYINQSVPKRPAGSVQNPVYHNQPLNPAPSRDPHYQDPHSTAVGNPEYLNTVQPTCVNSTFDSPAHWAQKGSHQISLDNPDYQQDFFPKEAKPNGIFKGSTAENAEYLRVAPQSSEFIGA

Melanocortin receptor 4 = Melanocortin receptor 4 (Homo sapiens, UniProt P32245); type: cell membranes, HEK293, Membrane; conditions: hek293; further: in other assays of this panel Not Active means under 50% inhibition at 10 µM
Chain of Melanocortin receptor 4 (P32245 whole entry): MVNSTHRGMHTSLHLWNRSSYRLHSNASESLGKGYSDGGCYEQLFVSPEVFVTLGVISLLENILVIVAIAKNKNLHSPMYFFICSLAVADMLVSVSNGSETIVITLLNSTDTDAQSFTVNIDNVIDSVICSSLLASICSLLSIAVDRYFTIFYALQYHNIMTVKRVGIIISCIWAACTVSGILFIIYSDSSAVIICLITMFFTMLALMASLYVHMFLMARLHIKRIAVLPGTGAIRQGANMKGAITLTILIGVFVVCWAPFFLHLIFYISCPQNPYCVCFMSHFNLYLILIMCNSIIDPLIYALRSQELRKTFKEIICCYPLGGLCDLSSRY

D(4) dopamine receptor = biological target: T2, D(4) dopamine receptor (Homo sapiens, UniProt P21917); assay: DRUGMATRIX: Dopamine D4.2 radioligand binding (ligand: [3H] Spiperone); type: cell membranes, CHO-K1, Membrane; conditions: cho-k1; Not Active = under 50% inhibition at 10 µM
T2 sequence (P21917 whole entry): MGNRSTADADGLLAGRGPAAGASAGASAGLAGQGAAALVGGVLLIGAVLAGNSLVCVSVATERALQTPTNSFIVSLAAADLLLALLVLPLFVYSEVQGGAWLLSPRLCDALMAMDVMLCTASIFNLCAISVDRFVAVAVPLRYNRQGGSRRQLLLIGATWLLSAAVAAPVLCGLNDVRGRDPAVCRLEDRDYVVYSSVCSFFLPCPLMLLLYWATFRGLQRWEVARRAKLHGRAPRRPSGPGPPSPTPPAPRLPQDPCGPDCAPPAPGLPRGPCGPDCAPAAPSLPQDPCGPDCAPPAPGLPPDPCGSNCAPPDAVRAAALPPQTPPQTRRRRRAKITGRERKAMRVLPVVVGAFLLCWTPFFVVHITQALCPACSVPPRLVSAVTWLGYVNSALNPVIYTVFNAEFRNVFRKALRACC

O=C(c1ccccc1C(F)(F)F)N1CCC(Cc2ccccc2)CC1
Not Active: IC50 (Glycine receptor) | IC50 [1] | IC50 [2] | Ki [2] | IC50 [3] | IC50 (Melanocortin receptor 4) | IC50 (D(4) dopamine receptor)

O=C/C=C/c1ccccc1
Not Active: IC50 (Glycine receptor) | IC50 [1] | IC50 [2] | Ki [2] | IC50 [3] | IC50 (Melanocortin receptor 4) | IC50 (D(4) dopamine receptor)

Nc1ccc2c3c(cccc13)C(=O)NC2=O
Not Active: IC50 (Glycine receptor) | IC50 [1] | IC50 [2] | Ki [2] | IC50 [3] | IC50 (Melanocortin receptor 4) | IC50 (D(4) dopamine receptor)

COc1ccc(C(=O)N2CCCC2=O)cc1
Not Active: IC50 (Glycine receptor) | IC50 [1] | IC50 [2] | Ki [2] | IC50 [3] | IC50 (Melanocortin receptor 4) | IC50 (D(4) dopamine receptor)

O=c1cnn([C@@H]2O[C@H](CO)[C@@H](O)[C@H]2O)c(=O)[nH]1 [6-AZAURIDINE]
Not Active: IC50 (Glycine receptor) | IC50 [1] | IC50 [2] | Ki [2] | IC50 [3] | IC50 (Melanocortin receptor 4) | IC50 (D(4) dopamine receptor)

CC[C@H](C)[C@H]1O[C@]2(C=C[C@@H]1C)C[C@@H]1C[C@@H](C/C=C(\C)[C@@H](O[C@H]3C[C@H](OC)[C@@H](O[C@H]4C[C@H](OC)[C@@H](O)[C@H](C)O4)[C@H](C)O3)[C@@H](C)/C=C/C=C3\CO[C@@H]4[C@H](O)C(C)=C[C@@H](C(=O)O1)[C@]34O)O2.CO[C@H]1C[C@H](O[C@H]2[C@H](C)O[C@@H](O[C@@H]3/C(C)=C/C[C@@H]4C[C@@H](C[C@]5(C=C[C@H](C)[C@@H](C(C)C)O5)O4)OC(=O)[C@@H]4C=C(C)[C@@H](O)[C@H]5OC/C(=C\C=C\[C@@H]3C)[C@]54O)C[C@@H]2OC)O[C@@H](C)[C@@H]1O [ABAMECTIN]
Not Active: IC50 [1] | IC50 [2] | Ki [2] | IC50 [3] | IC50 (Melanocortin receptor 4) | IC50 (D(4) dopamine receptor)

NCCCC(O)(P(=O)(O)O)P(=O)(O)O [ALENDRONIC ACID]
Not Active: IC50 (Glycine receptor) | IC50 [1] | IC50 [2] | Ki [2] | IC50 [3] | IC50 (Melanocortin receptor 4) | IC50 (D(4) dopamine receptor)

Cc1nnc2n1-c1ccc(Cl)cc1C(c1ccccc1)=NC2 [ALPRAZOLAM]
Not Active: IC50 (Glycine receptor) | IC50 [1] | IC50 [2] | Ki [2] | IC50 [3] | IC50 (Melanocortin receptor 4) | IC50 (D(4) dopamine receptor)

Cn1c(=O)c2[nH]cnc2n(C)c1=O.Cn1c(=O)c2[nH]cnc2n(C)c1=O.NCCN [AMINOPHYLLINE]
Not Active: IC50 (Glycine receptor) | IC50 [1] | IC50 [2] | Ki [2] | IC50 [3] | IC50 (Melanocortin receptor 4) | IC50 (D(4) dopamine receptor)

CCC1(CCC(C)C)C(=O)NC(=O)NC1=O [AMOBARBITAL]
Not Active: IC50 (Glycine receptor) | IC50 [1] | IC50 [2] | Ki [2] | IC50 [3] | IC50 (Melanocortin receptor 4) | IC50 (D(4) dopamine receptor)

CC1(C)S[C@@H]2[C@H](NC(=O)[C@H](N)c3ccccc3)C(=O)N2[C@H]1C(=O)O [AMPICILLIN]
Not Active: IC50 (Glycine receptor) | IC50 [1] | IC50 [2] | Ki [2] | IC50 [3] | IC50 (Melanocortin receptor 4) | IC50 (D(4) dopamine receptor)

COc1ccc(C2C(=O)c3ccccc3C2=O)cc1 [ANISINDIONE]
Not Active: IC50 (Glycine receptor) | IC50 [1] | IC50 [2] | Ki [2] | IC50 [3] | IC50 (Melanocortin receptor 4) | IC50 (D(4) dopamine receptor)

O=C1O[C@H]([C@@H](O)CO)C(O)=C1O [ASCORBIC ACID]
Not Active: IC50 (Glycine receptor) | IC50 [1] | IC50 [2] | Ki [2] | IC50 [3] | IC50 (Melanocortin receptor 4) | IC50 (D(4) dopamine receptor)

CN1[C@@H]2CC[C@H]1C[C@@H](OC(=O)C(CO)c1ccccc1)C2 (stereo not given in full) [ATROPINE]
Not Active: IC50 (Glycine receptor) | IC50 [2] | Ki [2] | IC50 [3] | IC50 (Melanocortin receptor 4) | IC50 (D(4) dopamine receptor)

CC(C(=O)O)c1ccc2oc(-c3ccc(Cl)cc3)nc2c1 (stereo not given) [BENOXAPROFEN]
Not Active: IC50 (Glycine receptor) | IC50 [1] | IC50 [2] | Ki [2] | IC50 [3] | IC50 (Melanocortin receptor 4) | IC50 (D(4) dopamine receptor)

COc1ccc2cc3[n+](cc2c1OC)CCc1cc2c(cc1-3)OCO2.[Cl-] [BERBERINE CHLORIDE]
Not Active: IC50 (Glycine receptor) | IC50 [1] | IC50 [2] | Ki [2] | IC50 [3] | IC50 (Melanocortin receptor 4) | IC50 (D(4) dopamine receptor)

O=C(O)CCNC(=O)c1ccccc1 [BETAMIPRON]
Not Active: IC50 (Glycine receptor) | IC50 [1] | IC50 [2] | Ki [2] | IC50 [3] | IC50 (Melanocortin receptor 4) | IC50 (D(4) dopamine receptor)

CC(=O)Oc1ccc(C(c2ccc(OC(C)=O)cc2)c2ccccn2)cc1 [BISACODYL]
Not Active: IC50 (Glycine receptor) | IC50 [1] | IC50 [2] | Ki [2] | IC50 [3] | IC50 (Melanocortin receptor 4) | IC50 (D(4) dopamine receptor)

Cc1cc2c(OCC(CNC(C)(C)C)OC(=O)c3ccccc3)cccc2[nH]1 (stereo not given) [BOPINDOLOL]
Not Active: IC50 (Glycine receptor) | IC50 [1] | IC50 [2] | Ki [2] | IC50 [3] | IC50 (Melanocortin receptor 4) | IC50 (D(4) dopamine receptor)

Brc1c(NC2=NCCN2)ccc2nccnc12 [BRIMONIDINE]
Not Active: IC50 (Glycine receptor) | IC50 [1] | IC50 [2] | Ki [2] | IC50 [3] | IC50 (Melanocortin receptor 4) | IC50 (D(4) dopamine receptor)

CN(C)[C@@H]1C(O)=C(C(N)=O)C(=O)[C@@]2(O)C(O)=C3C(=O)c4c(O)ccc(Cl)c4[C@@](C)(O)[C@H]3C[C@@H]12 [CHLORTETRACYCLINE]
Not Active: IC50 (Glycine receptor) | IC50 [1] | IC50 [2] | Ki [2] | IC50 [3] | IC50 (Melanocortin receptor 4) | IC50 (D(4) dopamine receptor)

CN/C(=N\CCSCc1nc[nH]c1C)NC#N [CIMETIDINE]
Not Active: IC50 (Glycine receptor) | IC50 [1] | IC50 [2] | Ki [2] | IC50 [3] | IC50 (Melanocortin receptor 4) | IC50 (D(4) dopamine receptor)

COc1cc(N)c(Cl)cc1C(=O)NC1CCN(CCCOc2ccc(F)cc2)CC1OC (stereo not given) [CISAPRIDE]
Not Active: IC50 (Glycine receptor) | IC50 [1] | IC50 [2] | Ki [2] | IC50 [3] | IC50 (Melanocortin receptor 4) | IC50 (D(4) dopamine receptor)

CCC(=O)O[C@]1(C(=O)CCl)[C@@H](C)C[C@H]2[C@@H]3CCC4=CC(=O)C=C[C@]4(C)[C@@]3(F)[C@@H](O)C[C@@]21C [CLOBETASOL PROPIONATE]
Not Active: IC50 (Glycine receptor) | IC50 [1] | IC50 [2] | Ki [2] | IC50 [3] | IC50 (Melanocortin receptor 4) | IC50 (D(4) dopamine receptor)

O=C1CN=C(c2ccccc2Cl)c2cc([N+](=O)[O-])ccc2N1 [CLONAZEPAM]
Not Active: IC50 (Glycine receptor) | IC50 [1] | IC50 [2] | Ki [2] | IC50 [3] | IC50 (Melanocortin receptor 4) | IC50 (D(4) dopamine receptor)

Nc1ccn([C@@H]2O[C@H](CO)[C@@H](O)[C@@H]2O)c(=O)n1 [CYTARABINE]
Not Active: IC50 (Glycine receptor) | IC50 [1] | IC50 [2] | Ki [2] | IC50 [3] | IC50 (Melanocortin receptor 4) | IC50 (D(4) dopamine receptor)

C[C@@H]1C[C@H]2[C@@H]3CCC4=CC(=O)C=C[C@]4(C)[C@@]3(F)[C@@H](O)C[C@]2(C)[C@H]1C(=O)CO [DESOXIMETASONE]
Not Active: IC50 (Glycine receptor) | IC50 [1] | IC50 [2] | Ki [2] | IC50 [3] | IC50 (Melanocortin receptor 4) | IC50 (D(4) dopamine receptor)

C[C@@H]1C[C@H]2[C@@H]3CCC4=CC(=O)C=C[C@]4(C)[C@@]3(F)[C@@H](O)C[C@]2(C)[C@@]1(O)C(=O)CO [DEXAMETHASONE]
Not Active: IC50 (Glycine receptor) | IC50 [1] | IC50 [2] | Ki [2] | IC50 [3] | IC50 (Melanocortin receptor 4) | IC50 (D(4) dopamine receptor)

O=c1cc(N2CCOCC2)oc2c(-c3ccccc3)cccc12 [LY-294002]
Not Active: IC50 (Glycine receptor) | IC50 [1] | IC50 [2] | Ki [2] | IC50 (Melanocortin receptor 4) | IC50 (D(4) dopamine receptor)
